This note sets out measurements from ChEMBL document CHEMBL3232856, “Endomorphin analogues with mixed μ-opioid (MOP) receptor agonism/δ-opioid (DOP) receptor antagonism and lacking β-arrestin2 recruitment activity” (Bioorg Med Chem, 2014).

Activity calls are given as the source filed them. The calls are words filed in the database; no cut-off is given here. Residues, ends and D or L forms follow the SMILES beside them.

Data set [1] addresses Mu-type opioid receptor (Rattus norvegicus, UniProt P33535). Briefly: Displacement of [3H]DAMGO from mu opioid receptor in Sprague-Dawley rat brain P2 synaptosomal membranes. On the technique in general: Loss of bound radioactivity is the signal in a displacement assay; it reports binding, not function.
Data set [2] deals with Delta-type opioid receptor (Rattus norvegicus, UniProt P33533). Briefly: Displacement of [3H]deltorphin-2 from delta opioid receptor in Sprague-Dawley rat brain P2 synaptosomal membranes.
Sequence of Delta-type opioid receptor (Rattus norvegicus, UniProt P33533) (P33533 whole entry): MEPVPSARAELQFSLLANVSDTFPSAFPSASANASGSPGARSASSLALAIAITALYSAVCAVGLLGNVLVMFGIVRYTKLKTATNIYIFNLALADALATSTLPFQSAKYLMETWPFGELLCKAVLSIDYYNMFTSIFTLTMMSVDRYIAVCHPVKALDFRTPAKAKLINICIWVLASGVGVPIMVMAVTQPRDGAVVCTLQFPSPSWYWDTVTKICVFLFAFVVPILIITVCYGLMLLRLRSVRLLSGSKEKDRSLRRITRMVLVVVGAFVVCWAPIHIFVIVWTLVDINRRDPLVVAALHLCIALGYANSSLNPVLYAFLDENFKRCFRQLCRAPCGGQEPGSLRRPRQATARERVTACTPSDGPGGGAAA
Data set [3] concerns the target Mu-type opioid receptor (Cavia porcellus, UniProt P97266). Briefly: Agonist activity at mu opioid receptor in guinea pig ileum assessed as inhibition of electrically-stimulated muscle contraction. The format is tissue-based.
Data set [4] deals with Delta-type opioid receptor (Mus musculus, UniProt P32300). Briefly: Agonist activity at delta opioid receptor in mouse vas deferens assessed as inhibition of electrically-stimulated muscle contraction. The format is tissue-based.
Sequence of Delta-type opioid receptor (Mus musculus, UniProt P32300) (P32300 whole entry, the tested form may be a part): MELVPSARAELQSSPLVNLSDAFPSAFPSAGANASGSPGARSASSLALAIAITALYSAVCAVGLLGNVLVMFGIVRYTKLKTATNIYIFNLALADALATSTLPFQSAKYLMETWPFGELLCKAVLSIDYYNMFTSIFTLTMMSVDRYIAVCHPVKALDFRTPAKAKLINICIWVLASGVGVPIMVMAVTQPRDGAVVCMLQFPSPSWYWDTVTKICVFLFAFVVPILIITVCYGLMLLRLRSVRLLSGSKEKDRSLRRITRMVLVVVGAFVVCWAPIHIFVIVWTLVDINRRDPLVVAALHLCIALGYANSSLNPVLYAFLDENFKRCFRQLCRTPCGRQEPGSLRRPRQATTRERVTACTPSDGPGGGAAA
The target of data set [5] is T1, Mu-type opioid receptor (Homo sapiens, UniProt P35372). Briefly: Agonist activity at GFP-fused mu opioid receptor (unknown origin) expressed in HEK293 cells assessed as recruitment of beta-arrestin-2 after 10 mins by BRET assay. In kind it is cell-based.
T1 sequence (P35372 whole entry, the tested form may be a part): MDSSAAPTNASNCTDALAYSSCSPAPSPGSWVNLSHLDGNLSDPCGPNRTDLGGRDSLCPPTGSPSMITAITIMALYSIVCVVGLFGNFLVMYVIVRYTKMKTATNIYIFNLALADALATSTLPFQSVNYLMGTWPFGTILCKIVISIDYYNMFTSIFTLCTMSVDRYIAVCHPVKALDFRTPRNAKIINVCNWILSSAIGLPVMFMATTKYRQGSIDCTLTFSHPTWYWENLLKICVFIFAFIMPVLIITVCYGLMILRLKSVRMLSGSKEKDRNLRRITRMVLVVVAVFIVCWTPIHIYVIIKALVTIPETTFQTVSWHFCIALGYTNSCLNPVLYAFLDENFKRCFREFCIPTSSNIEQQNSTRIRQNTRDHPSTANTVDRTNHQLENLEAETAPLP
For data set [6], the target named is T1, Mu-type opioid receptor. Briefly: Potency index, ratio of DAMGO EC50 to compound EC50 for mu opioid receptor (unknown origin) by beta-arrestin-2 recruitment assay.
The target in data set [7] is T1, Mu-type opioid receptor. Briefly: Intrinsic efficacy at GFP-fused mu opioid receptor (unknown origin) expressed in HEK293 cells assessed as recruitment of beta-arrestin-2 after 10 mins by BRET assay relative to untreated control. In kind it is cell-based. The note with it: hek293, 10 min. On the technique in general: In BRET a luciferase serves as donor, and the signal depends on an acceptor being close.

Data set [8] deals with T2, Delta-type opioid receptor (Homo sapiens, UniProt P41143). Briefly: Agonist activity at GFP-fused delta opioid receptor (unknown origin) expressed in HEK293 cells assessed as recruitment of beta-arrestin-2 after 10 mins by BRET assay. In kind it is functional, cell-based.
T2 sequence (P41143 whole entry, the tested form may be a part): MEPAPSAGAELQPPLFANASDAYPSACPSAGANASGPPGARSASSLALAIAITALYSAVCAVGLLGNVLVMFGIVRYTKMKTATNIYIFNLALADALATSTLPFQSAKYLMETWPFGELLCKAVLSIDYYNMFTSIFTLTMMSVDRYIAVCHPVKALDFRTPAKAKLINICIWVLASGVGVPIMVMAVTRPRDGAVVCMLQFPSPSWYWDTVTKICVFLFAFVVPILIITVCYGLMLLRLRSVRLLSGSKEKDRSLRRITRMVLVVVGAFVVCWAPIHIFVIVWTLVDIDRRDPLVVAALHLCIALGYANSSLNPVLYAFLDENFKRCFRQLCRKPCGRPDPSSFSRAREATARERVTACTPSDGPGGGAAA
Data set [9] deals with T3, Kappa-type opioid receptor (Homo sapiens, UniProt P41145). Briefly: Agonist activity at GFP-fused kappa opioid receptor (unknown origin) expressed in HEK293 cells assessed as recruitment of beta-arrestin-2 after 10 mins by BRET assay. The format is cell-based.
T3 sequence (P41145 whole entry, the tested form may be a part): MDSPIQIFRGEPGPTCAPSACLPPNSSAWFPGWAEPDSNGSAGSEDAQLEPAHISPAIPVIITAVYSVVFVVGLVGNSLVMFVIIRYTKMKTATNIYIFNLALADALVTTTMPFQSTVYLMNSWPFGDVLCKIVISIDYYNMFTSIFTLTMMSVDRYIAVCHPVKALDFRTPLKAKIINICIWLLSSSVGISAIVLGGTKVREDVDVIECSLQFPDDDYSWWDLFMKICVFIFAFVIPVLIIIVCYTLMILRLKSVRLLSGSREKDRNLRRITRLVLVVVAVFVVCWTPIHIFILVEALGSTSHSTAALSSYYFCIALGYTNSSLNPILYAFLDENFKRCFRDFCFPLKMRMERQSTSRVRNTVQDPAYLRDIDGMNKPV
Data set [10] deals with T1, Mu-type opioid receptor. The note with it: HEK293, at 1 µM.
The target of data set [11] is T2, Delta-type opioid receptor. Particulars: HEK293, at 0.1 to 10 µM.
Data set [12] concerns the target T2, Delta-type opioid receptor. The note with it: HEK293, at 100 µM.
The target in data set [13] is T3, Kappa-type opioid receptor. The note with it: HEK293, at 0.1 to 10 µM.
Data set [14] addresses T2, Delta-type opioid receptor. The note with it: HEK293, at 100 µM. This is another data set of the same source.
A short description of data set [15]: Displacement of [3H]DPDPE from delta opioid receptor in guinea pig brain membranes after 1 hr. The format is cell membranes, Cavia porcellus, Membrane.
In data set [16] the target is T2, Delta-type opioid receptor. Briefly: Agonist activity at delta opioid receptor (unknown origin) expressed in HEK293 cells assessed as inhibition of forskolin-induced cAMP accumulation after 30 mins. The format is functional, cell-based. (Changes in cAMP serve as a functional read-out for many G protein-coupled receptors.)
Data set [17] has as its target T1, Mu-type opioid receptor. Particulars: HEK293, at 100 µM.
For data set [18], the target named is T1, Mu-type opioid receptor. Briefly: Displacement of [3H]DAMGO from mu opioid receptor (unknown origin).
Data set [19] addresses T2, Delta-type opioid receptor. Briefly: Displacement of [3H]DPDPE from delta opioid receptor (unknown origin).

Sequence of Mu-type opioid receptor (Rattus norvegicus, UniProt P33535) (P33535 whole entry): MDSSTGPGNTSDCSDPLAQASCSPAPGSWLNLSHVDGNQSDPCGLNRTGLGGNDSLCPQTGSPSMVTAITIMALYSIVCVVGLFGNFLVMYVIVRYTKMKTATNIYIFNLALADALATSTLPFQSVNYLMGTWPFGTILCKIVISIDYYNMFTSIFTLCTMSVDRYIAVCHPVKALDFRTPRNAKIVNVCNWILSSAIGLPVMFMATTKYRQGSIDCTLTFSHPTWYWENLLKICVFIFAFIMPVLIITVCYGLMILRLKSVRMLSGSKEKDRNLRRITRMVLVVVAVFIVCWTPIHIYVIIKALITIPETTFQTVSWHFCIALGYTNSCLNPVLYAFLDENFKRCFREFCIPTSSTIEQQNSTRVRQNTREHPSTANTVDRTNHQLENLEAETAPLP
Sequence of Mu-type opioid receptor (Cavia porcellus, UniProt P97266) (P97266 whole entry): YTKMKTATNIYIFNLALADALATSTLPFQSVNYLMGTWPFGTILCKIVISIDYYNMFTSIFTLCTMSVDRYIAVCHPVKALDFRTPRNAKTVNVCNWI

In the case of `Cc1cc(C)c(C[C@H](NC(=O)[C@@H]2CCCN2C(=O)[C@@H](N)Cc2c(C)cc(O)cc2C)C(N)=O)c(C)c1`, the inhibition constant Ki at Mu-type opioid receptor [1] turned out to be 0.13 nM; in data set [2], 13.1 nM. For the same compound, the IC50 on Mu-type opioid receptor [3] is 2.68 nM; in data set [4], more than 10000 nM. Moreover, the concentration giving a half-maximal response (EC50) is 18.6 nM on Mu-type opioid receptor [5] (read-out: EC50), “Not Active” in data set [8] and “Not Active” in data set [9]. The “Ratio EC50” value on Mu-type opioid receptor [6] came to 20. Besides, the Ratio at Mu-type opioid receptor [7] was determined as 0.4. Besides, the inhibition result on Mu-type opioid receptor [10] is “Active”. The inhibition result in [11], in data set [12], in data set [13] and in data set [14] was “inactive” in each case.
In the case of `CC(C)C[C@@H](NC(=O)[C@H](Cc1ccccc1)NC(=O)CNC(=O)[C@@H](C)NC(=O)[C@@H](N)Cc1ccc(O)cc1)C(=O)O` [DADLE], on Mu-type opioid receptor [3], the half-inhibitory concentration (IC50) was 13.4 nM. This compound also yielded an inhibition constant Ki in data set [15] of 0.3 nM.
Regarding `Cc1cc(O)cc(C)c1C[C@H](N)C(=O)N1CCC[C@H]1C(=O)N[C@@H](Cc1c[nH]c2ccccc12)C(N)=O` (HELM PEPTIDE1{[Cc1cc(O)cc(C)c1C[C@H](N)C(=O)[*:2]].P.W.[am]}$$$$V2.0), the inhibitory constant (Ki) at Mu-type opioid receptor [1] came out at 0.21 nM; in data set [2], 66.4 nM. Further, the concentration for half-maximal inhibition (IC50) is 10.4 nM on Mu-type opioid receptor [3], more than 10000 nM in data set [4] and less than 100 nM in data set [16]. Also, the EC50 on Mu-type opioid receptor [5] (read-out: EC50) was 6.3 nM; in data set [8], “Not Active”; in data set [9] it was “Not Active”. Further, at Mu-type opioid receptor [6], the “Ratio EC50” value worked out at 60. Besides, the Ratio on Mu-type opioid receptor [7] was found to be 0.6. The inhibition result (on Mu-type opioid receptor [10]; on Mu-type opioid receptor [17]; in data set [11]; in data set [13]) was “Active” each time. For the same compound, the inhibition result in data set [12] and in data set [14] was “inactive” in each case.
With `Cc1cc(O)cc(C)c1C[C@H](N)C(=O)N1CCC[C@H]1C(=O)N[C@@H](Cc1ccccc1)C(N)=O` (HELM PEPTIDE1{[Cc1cc(O)cc(C)c1C[C@H](N)C(=O)[*:2]].P.F.[am]}$$$$V2.0), the Ki on Mu-type opioid receptor [18] is 0.12 nM; in [19], 53.2 nM. Moreover, the IC50 on Mu-type opioid receptor [3] was found to be 2.33 nM; in [4], 113 nM.
Take `Cc1cc(C)c(C[C@H](NC(=O)[C@H](Cc2ccccc2)NC(=O)[C@@H]2CCCN2C(=O)[C@@H](N)Cc2c(C)cc(O)cc2C)C(N)=O)c(C)c1`: the figures for the inhibition constant (Ki) (on Mu-type opioid receptor [1]; in data set [2]) were 0.37 nM and 24.5 nM, respectively. The IC50 on Mu-type opioid receptor [3] was 66.7 nM; in [4], more than 10000 nM. Further, the EC50 result (at Mu-type opioid receptor [5] (hek293); in [8]; in [9]) was “Not Active” in each case. For the same compound, the inhibition result on Mu-type opioid receptor [10] was “Active”. Moreover, the inhibition entry (on Mu-type opioid receptor [17]; in data set [11]; in [12]; in data set [13]; in data set [14]) was “inactive” each time.

The Ki is a measure of affinity in units of concentration, obtained from inhibition or displacement. Usually IC50 stands for the concentration that inhibits the measured activity by half. Usually EC50 stands for the concentration giving half of the maximal effect.
